Assay results from patent US20220023269A1, “Methods Of Treating Diabetes In Severe Insulin-Resistant Diabetic Subjects” (Balticgruppen Bio AB, priority 2018, published 2022).

Tests used:
[1] = system: patients suffering from type-2 diabetes; experiment: Renal hemodynamics / glomerular perfusion in humans; type: in vivo, human
[2] = molecular target: T1, PP2C-mediated dephosphorylation of p-T172 of human recombinant AMPKα, -β, and -γ trimers (Homo sapiens, UniProt P54619+P54646+Q9Y478); experiment: AMPK in vitro de-phosphorylation assay; type: biochemical
T1 construct: purchased Life Technologies (AMPK trimer); Abcam (PP2Ca) PV4674 (Lot 1261361B); ab51205-100 (Lot GR54133-5)
Description: (§1) AMPKα2/β1/γ1 trimer (Life Technologies #PV4674, Lot 1261361B) (1 ng/μl) was incubated with 10 μM test material, 20 μM test material or 150 μM ADP (Sigma #A2754) +/−1 mM ATP (Sigma #A1852-1VL) in buffer (40 mM Hepes, 0.5 mM DTT, 0.2 mg/ml Gelatin (Sigma #G7041) and 0.4% DMSO), +/−PP2Ca (0.25-0.75 ng/μl) (Abcam ab51205-100; Lot GR54133-5) and 5 mM MnCl2 (total volume 20 μl). AMPKα2/β1/γ1+/−ATP was preincubated with the test material and ADP for 2 minutes at 30° C. before addition of PP2C/MnCl2 to start the dephosphorylation reaction which continued for 10-15 minutes at 30° C. Reactions were terminated by the addition of 0.17% BSA, 13 mM EDTA, 1.3×XT Sample buffer and 0.67% β-Mercaptoethanol in PBS. Samples were placed on ice, 5 minutes, heated at 100° C. for 5 minutes and chilled before run on a western gel. All steps were performed in high quality low-protein-binding eppendorf tubes. In a separate experiment 10 μM test material, 20 μM test material, 150 μM ADP alone or the combination of 10 μM test material+150 μM ADP and 20 μM test material+150 μM ADP was incubated with 1 ng/μl of AMPKα2/β1/γ1 or AMPKα1/β1/γ1 (Life Technologies #PV4672) trimer in buffer (40 mM Hepes, 0.5 mM DTT, 0.2 mg/ml gelatin and 0.4% DMSO)+/−0.25-0.5 ng/μl PP2Ca and 5 mM MnCl2 or 5 mM MgCl2. AMPK was sequentially preincubated with the test material and ADP or the combination for 2 minutes at 30° C. before sequential addition of PP2C/MnCl2 or PP2C/MgCl2 to start the dephosphorylation reaction which continued for 5-15 minutes at 30° C. The reaction was thereafter terminated and analysed as above.

[3] = system: PP2C-mediated dephosphorylation of p-T172 of human recombinant AMPKα, -β, and -γ trimers; experiment: AMPK in vitro de-phosphorylation assay; type: biochemical; conditions: with 150 μM ADP
Description: as §1

[4] = system: CBA mice on HFD; experiment: In vivo lipogenesis; conditions: 2 mg/g in HFD, 5 weeks
Description: After 90 minutes 0.2-0.3 g liver were isolated and homogenised in 3 ml PBS before addition of 6 ml chloroform/methanol (2:1). Samples were mixed until phase separation no longer occurred and left at RT 30 minutes before centrifuged, 4,500 rpm, 5 minutes. The water phase was removed and 3 ml chloroform transferred to a scintillation vial and evaporated to dryness by a stream of nitrogen while standing in a 40° C. water bath. The residue was dissolved in 3 ml optiphase hisafe 3 (Perkin Elmer #1200.437) and ^3H determined for 1 minute in a Wallac 1414 counter. ^3H values were normalised to liver weight.

T1 sequence (P54646 whole entry): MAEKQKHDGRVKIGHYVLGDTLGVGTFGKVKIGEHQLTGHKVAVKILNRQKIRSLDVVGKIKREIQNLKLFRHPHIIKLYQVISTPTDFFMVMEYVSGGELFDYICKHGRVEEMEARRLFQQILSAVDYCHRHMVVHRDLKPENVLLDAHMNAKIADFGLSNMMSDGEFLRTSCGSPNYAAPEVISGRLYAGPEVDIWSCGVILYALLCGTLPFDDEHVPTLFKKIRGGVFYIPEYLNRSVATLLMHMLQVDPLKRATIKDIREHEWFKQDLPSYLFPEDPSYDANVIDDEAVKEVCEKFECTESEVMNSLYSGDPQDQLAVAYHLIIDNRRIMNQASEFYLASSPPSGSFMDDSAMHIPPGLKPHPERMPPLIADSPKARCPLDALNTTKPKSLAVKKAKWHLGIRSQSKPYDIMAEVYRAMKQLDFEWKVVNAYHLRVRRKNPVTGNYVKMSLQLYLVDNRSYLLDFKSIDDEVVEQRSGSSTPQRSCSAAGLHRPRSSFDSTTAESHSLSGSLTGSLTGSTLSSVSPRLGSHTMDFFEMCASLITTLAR
T1 sequence (Q9Y478 2-270): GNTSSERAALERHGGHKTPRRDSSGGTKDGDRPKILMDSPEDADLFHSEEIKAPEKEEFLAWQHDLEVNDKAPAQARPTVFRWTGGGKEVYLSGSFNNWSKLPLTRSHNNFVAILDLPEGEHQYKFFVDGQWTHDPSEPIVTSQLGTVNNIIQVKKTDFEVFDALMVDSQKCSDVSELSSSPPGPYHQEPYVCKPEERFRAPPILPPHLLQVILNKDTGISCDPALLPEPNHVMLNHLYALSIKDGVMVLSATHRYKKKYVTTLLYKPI
T1 sequence (P54619 whole entry): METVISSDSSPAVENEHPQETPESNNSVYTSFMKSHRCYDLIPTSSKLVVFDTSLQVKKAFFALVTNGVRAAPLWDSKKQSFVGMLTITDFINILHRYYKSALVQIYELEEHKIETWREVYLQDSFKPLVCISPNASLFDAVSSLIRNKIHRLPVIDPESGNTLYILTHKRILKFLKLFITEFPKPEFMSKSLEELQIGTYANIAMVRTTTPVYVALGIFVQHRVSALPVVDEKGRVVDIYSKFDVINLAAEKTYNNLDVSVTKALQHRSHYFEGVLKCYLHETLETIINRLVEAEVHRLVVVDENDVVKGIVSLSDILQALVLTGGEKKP

In the case of `O=C(Nc1nc(=O)n(Cc2ccc(Cl)cc2)s1)c1ccc(Cl)cc1` [test material, 4-chloro-N-[2-[(4-chlorophenyl)methyl]-3-oxo-1,2,4-thiadiazol-5-yl]benzamide], the “microvascular perfusion in glomeruli” value ([1]; humans) is reported as “positive effect on microvascular perfusion in glomeruli”, the renal hemodynamics ([1]; patients suffering from type-2 diabetes) is reported as “positive effects on renal hemodynamics” and the “PP2C-mediated dephosphorylation of p-T172 AMPK” value ([2]; absence of ATP) is reported as “suppressed”. For the same compound, the “dephosphorylation of pAMPK” value ([2]; presence of excess ATP (1.0 mM)) was “protected pAMPK from dephosphorylation”, the “effect together with ADP on pAMPK dephosphorylation” value [3] was “acted in an additive manner with ADP” and the “reduction of hepatic DNL” value [4] was about 45%.
